Measurements reported in patent publication US12024715B2, “Compositions and methods for improved T cells” (Temple University-Of The Commonwealth System of Higher …, priority 2017, dated 2024).

Legend:
[1] = tested on: Id3, Id2, Eomes and Prdm1; test: Real-time RT-PCR analysis of Ezh2-targeted genes in cultured Pmel-1 cells; type: cell-based, mouse; conditions: WT Pmel-1 cells, anti-CD3/CD28 Ab+IL-2, inhibitor treatment for 7 days
Protocol: Splenic and LN CD44loCD8+ TN cells were prepared as previously described (Zhang et al., 2002, J Immunol, 169:7111-7118; Zhang et al., 2005, Nat Med, 11:1299-1305). The purity was usually 90-95%. CD8+ T cell cultures were set up as previously described (He et al., 2013, Blood, 122:4119-4128; Tong et al., 2014, J Immunol, 192:5012-5022). In brief, CD44loCD8+ naive T cells (were cultured in the presence of anti-CD3 (2 μg/ml) and anti-CD28 (2.0 μg/ml) Abs together with recombinant human IL-2 (10 ng/ml; R&D Systems). In vivo sorted T cells and cultured T cells were restimulated with anti-CD3 Ab (1 μg/ml; BioLegend) or human gp100 (10^−6 M) for 5 hours before intracellular staining. Bone marrow-derived dendritic cells (DCs) were generated as previously described (Zhang et al., 2005, Nat Med, 11:1299-1305). For TAT-Cre experiments, 10^6 purified CD8^+ T cells or splenocytes were incubated in 100 μL serum-free RPMI containing 90 to 100 μg/mL TAT-Cre fusion protein for 16 hours at 37° C. After extensive washing, treated cells were kept in vitro culture for another 5 days.
The MigR1 retroviral vector system was described previously (Tong et al., 2014, J Immunol, 192:5012-5022; Pear et al., 1998, Blood, 92:3780-3792). Ezh2, Ezh2 mutants, and Id3 cDNA was cloned into Mig-R1 (GFP) vector. For retroviral infection, CD8+ T cells were prestimulated with anti-CD3/CD28 Ab for 24 hours, and then the retrovirus supernatant was added in the presence of 8 μg/ml polybrene (Sigma). Cells were spinoculated at 3000 rpm, 32° C. for 3 hours. The same retroviral infection procedure was repeated 24 hours later (Tong et al., 2014, J Immunol, 192:5012-5022).
RNA was isolated with an RNeasy Mini kit (Qiagen) and cDNA was generated by reverse transcription (Applied Biosystems). Real-time RT-PCR was performed with a SYBR green PCR mix (ABI Biosystems) in the Realplex Eppendorf Real-time PCR instrument (Eppendorf AG). Gene expression levels were calculated relative to the 18s gene. Data were collected and quantitatively analyzed on a Realplex sequence detection system (Eppendorf AG), and Applied Biosystems StepOne Plus Real-time PCR systems (Applied Biosystems).

pEzh2S21 and H3K27me3 = test: Immunoblot analysis of TCR-activated Pmel-1 CD8+ T cells; type: cell-based, mouse; conditions: proliferating Pmel-1 CD8+ T cells stimulated in vitro for 7 days, with or without MK2206
[2] = tested on: promoter regions of Id3, Id2, Eomes and Prdm1 loci; test: ChIP analysis of Ezh2 and H3K27me3 deposition in cultured Pmel-1 cells; type: cell-based, mouse; conditions: Akt inhibition
Protocol: A Millipore ChIP kit and Diagenode ChIP kit was used for ChIP assay as described by the manufacturer. DNA-protein complexes were crosslinked with formaldehyde at a final concentration of 1%. Sonicated extracts were precleared and incubated with Abs specific to Ezh2, H3K27me3, or nonspecific anti-IgG. The immunoprecipitated DNA was quantified by real-time quantitative PCR.

B16 melanoma = test: Adoptive transfer of Pmel-1 cells into B6 mice with pre-established B16 melanoma, tumor size over time; type: in vivo, mouse; conditions: Pmel-1 cells treated during ex vivo culture, transferred into B16 melanoma-bearing B6 mice
Protocol: Pmel-1 T cells (1×10^4 to 1×10^6) were transferred into sublethally irradiated B6 mice (5.0 Gy). IL-2 (100,000 IU) was administered intraperitoneally twice a day, and BM-derived DCs which have been pulsed with gp100 (10 μg) were transferred via tail vein, for constitutively three days after adoptive transfer. C57BL/6 mice were injected subcutaneously with 5×10^5 B16 melanoma cells. In some experiments, Ezh2^fl/fl mice were intravenously received VVA-gp100 or VVA-OVA.
The Abs used for flow cytometric analyses were purchased from eBioscience, BioLegend, or BD Biosciences. Flow cytometric analyses were performed with FACS LSRII (BD Biosciences) as described (Zhang et al., 2005, Nat Med, 11:1299-1305; Zhang et al., 2002, J Immunol, 169:7111-7118). B16 mouse melanoma cell line was from American Type Culture Collection.

Compound	Eomes expression [1]	Id2 expression [1]	Id3 expression [1]	Prdm1 expression [1]	H3K27me3 (immunoblot) (pEzh2S21 and H3K27me3)	pEzh2S21 (immunoblot) (pEzh2S21 and H3K27me3)	amount of Ezh2 at the promoter regions of Id3, Id2, Eomes and Prdm1 loci [2]	amount of H3K27me3 at the promoter regions of Id3, Id2, Eomes and Prdm1 loci [2]	anti-tumor activity (tumor growth) (B16 melanoma)
Oc1cccc(-c2nc(N3CCOCC3)c3oc4ncccc4c3n2)c1 [PI103]	reducing	reducing	upregulated	reducing	–	–	–	–	–
NC1(c2ccc(-c3nc4ccn5c(=O)[nH]nc5c4cc3-c3ccccc3)cc2)CCC1 [MK2206]	reducing	reducing	upregulated	reducing	increase	marked decrease	significantly increased	significantly increased	greater anti-tumor activity than untreated Pmel-1 cells, but was less potent than Ezh2S21A-transduced Pmel-1 cells
